These are literature values, as cited in patent US6740653B2, “Shelf life extension of microemulsions containing active aza biocide” (ISP Investments Inc., priority 2001, dated 2004).

Take `Cc1ccc(/N=C/N(C)/C=N/c2ccc(C)cc2C)c(C)c1` [Amitraz]: the soluble in water is 1 mg/L.
